From ChEMBL document CHEMBL1201862, “PubChem BioAssay data set” (2004)
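Following 48 hours of exposure in 96-well plates, responses at five concentrations were used to interpolate endpoints linearly. The concentration for 50% growth inhibition is given as GI50.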 Calls of active or inactive are those of the source. Cut-off read from the data, not from the text of the source: active = GI50 up to about 1.1 µM and inactive = higher. Numbered stars: 1 amine (or outer) side, 2 acyl side, 3 side chain; on linkers, the order of the positions; unused ones are H or OH. Square brackets hold non-standard residues; d marks the D form. Peptide text beside a SMILES is read from it. X55 = CC[C@H](C)[C@H](OC(=O)[C@@H](C)[C@@H](CC)N[*:1])C(=O)[*:2]; X31 = C[C@H](N[*:1])C(=O)C(C)(C)C(=O)[*:2]; NMeY = CN[C@@H](Cc1ccc(O)cc1)C(=O)O; NMeL = CN[C@@H](CC(C)C)C(=O)O; NMeV = CN[C@H](C(=O)O)C(C)C

What was measured:
Experiment in all cases: inhibition of tumour cell growth, NCI panel, 48 h
OVCAR-5 = tested on: OVCAR-5
NCI/ADR-RES = tested on: NCI/ADR-RES
SK-MEL-2 = tested on: SK-MEL-2
Malme-3M = tested on: Malme-3M
786-0 = tested on: 786-0
SF-268 = tested on: SF-268
MDA-N = tested on: MDA-N
MOLT-4 = tested on: MOLT-4
OVCAR-4 = tested on: OVCAR-4
SF-539 = tested on: SF-539
EKVX = tested on: EKVX
COLO 205 = tested on: COLO 205
DU-145 = tested on: DU-145
NCI-H460 = tested on: NCI-H460
HL-60 = tested on: HL-60
RXF 393 = tested on: RXF 393
LOX IMVI = tested on: LOX IMVI
BT-549 = tested on: BT-549
M14 = tested on: M14
MCF7 = tested on: MCF7

Compound | GI50 (OVCAR-5) | GI50 (NCI/ADR-RES) | GI50 (SK-MEL-2) | GI50 (Malme-3M) | GI50 (786-0) | GI50 (SF-268) | GI50 (MDA-N) | GI50 (MOLT-4) | GI50 (OVCAR-4) | GI50 (SF-539) | GI50 (EKVX) | GI50 (COLO 205) | GI50 (DU-145) | GI50 (NCI-H460) | GI50 (HL-60) | GI50 (RXF 393) | GI50 (LOX IMVI) | GI50 (BT-549) | GI50 (M14) | GI50 (MCF7)
Brc1ccccc1/C=C\C1(c2ccccc2)OCCO1 | 15.3 µM (inactive) | 10.9 µM (inactive) | 23 µM (inactive) | 15.9 µM (inactive) | 11.6 µM (inactive) | 4.98 µM (inactive) | 12.3 µM (inactive) | 0.238 µM (active) | 4.26 µM (inactive) | 10.4 µM (inactive) | 15.8 µM (inactive) | 19.6 µM (inactive) | 13.7 µM (inactive) | 14.1 µM (inactive) | 24.7 µM (inactive) | 13.9 µM (inactive) | 3.34 µM (inactive) | 18.3 µM (inactive) | 11.4 µM (inactive) | 4 µM (inactive)
CNC1NC(=O)c2ccccc2N1Cc1ccc(F)cc1 (centres undefined) | > 100 µM (inactive) | > 100 µM (inactive) | > 100 µM (inactive) | > 100 µM (inactive) | > 100 µM (inactive) | > 100 µM (inactive) | > 100 µM (inactive) | > 100 µM (inactive) | > 100 µM (inactive) | > 100 µM (inactive) | > 100 µM (inactive) | > 100 µM (inactive) | > 100 µM (inactive) | > 100 µM (inactive) | > 100 µM (inactive) | > 100 µM (inactive) | > 100 µM (inactive) | > 100 µM (inactive) | > 100 µM (inactive) | > 100 µM (inactive)
Cc1ccccc1C(=N)c1ccccc1Cc1cccc2ccccc12 | 37.5 µM (inactive) | 25.7 µM (inactive) | 16.9 µM (inactive) | 11.5 µM (inactive) | 19.4 µM (inactive) | 20.6 µM (inactive) | 22.2 µM (inactive) | 14 µM (inactive) | 28.4 µM (inactive) | 17.6 µM (inactive) | 29.4 µM (inactive) | 27.6 µM (inactive) | 21.8 µM (inactive) | 15.5 µM (inactive) | 18.1 µM (inactive) | 5.93 µM (inactive) | 18.1 µM (inactive) | 33.2 µM (inactive) | 34.2 µM (inactive) | 19.1 µM (inactive)
O=[N+]([O-])/C(Cl)=C(/C(Cl)=C(Cl)Cl)N1CCOCC1 | 7.93 µM (inactive) | 3.29 µM (inactive) | 2.12 µM (inactive) | 1.44 µM (inactive) | 2.92 µM (inactive) | 6.41 µM (inactive) | 2.32 µM (inactive) | 2.58 µM (inactive) | 5.51 µM (inactive) | 3.12 µM (inactive) | 6.53 µM (inactive) | 2.54 µM (inactive) | 13.7 µM (inactive) | 4.33 µM (inactive) | 2.28 µM (inactive) | 2.61 µM (inactive) | 3.66 µM (inactive) | 2.46 µM (inactive) | 2.36 µM (inactive) | 1.12 µM (active)
CC(=O)Nc1ccc2nc(-c3ccccn3)c(-c3ccccn3)nc2c1 | > 100 µM (inactive) | > 100 µM (inactive) | > 100 µM (inactive) | > 100 µM (inactive) | > 100 µM (inactive) | > 100 µM (inactive) | > 100 µM (inactive) | > 100 µM (inactive) | > 100 µM (inactive) | > 100 µM (inactive) | > 100 µM (inactive) | > 100 µM (inactive) | > 100 µM (inactive) | > 100 µM (inactive) | > 100 µM (inactive) | 89.7 µM (inactive) | > 100 µM (inactive) | > 100 µM (inactive) | > 100 µM (inactive) | > 100 µM (inactive)
O=C(NC(CO)CO)c1ccc2cc(C(=O)N3CC(CCl)c4ccc([N+](=O)[O-])cc43)[nH]c2c1 (centres undefined) | > 100 µM (inactive) | > 100 µM (inactive) | > 100 µM (inactive) | > 100 µM (inactive) | > 100 µM (inactive) | > 100 µM (inactive) | > 100 µM (inactive) | > 100 µM (inactive) | > 100 µM (inactive) | > 100 µM (inactive) | > 100 µM (inactive) | 50 µM (inactive) | > 100 µM (inactive) | > 100 µM (inactive) | > 100 µM (inactive) | > 100 µM (inactive) | > 100 µM (inactive) | > 100 µM (inactive) | > 100 µM (inactive) | > 100 µM (inactive)
COC(=O)/C(C#N)=C(\Nc1ccccc1)N1CCCCC1 | > 100 µM (inactive) | > 100 µM (inactive) | > 100 µM (inactive) | > 100 µM (inactive) | > 100 µM (inactive) | > 100 µM (inactive) | > 100 µM (inactive) | > 100 µM (inactive) | > 100 µM (inactive) | > 100 µM (inactive) | > 100 µM (inactive) | > 100 µM (inactive) | > 100 µM (inactive) | > 100 µM (inactive) | > 100 µM (inactive) | > 100 µM (inactive) | > 100 µM (inactive) | > 100 µM (inactive) | > 100 µM (inactive) | > 100 µM (inactive)
CC[C@H](C)[C@@H]1OC(=O)[C@@H](C)[C@@H](CC)NC(=O)[C@H](C)NC(=O)C(C)(C)C(=O)[C@H](C)NC(=O)[C@H](Cc2ccc(OC)cc2)N(C)C(=O)[C@H](C(C)C)N(C)C(=O)CNC(=O)[C@H](CC(C)C)N(C)C(=O)CNC1=O [DOLASTATIN 11] (cyclo(A[X55]G[NMeL]G[NMeV][NMeY](Me)[X31])) | 0.9 µM (active) | 0.802 µM (active) | 0.0787 µM (active) | 0.13 µM (active) | 0.0304 µM (active) | 0.082 µM (active) | 0.0855 µM (active) | 0.543 µM (active) | 0.0507 µM (active) | 0.0122 µM (active) | 0.102 µM (active) | – | 0.118 µM (active) | 0.00115 µM (active) | 0.0117 µM (active) | 0.0223 µM (active) | 0.01 µM (active) | 0.091 µM (active) | < 0.0148 µM (active) | 0.0592 µM (active)
COC(=O)c1cc(C)ccc1CC(Cc1ccc(C)cc1)C(=O)OC (centres undefined) | 9.86 µM (inactive) | 23.7 µM (inactive) | 25.1 µM (inactive) | 22 µM (inactive) | 25.7 µM (inactive) | 7.52 µM (inactive) | 40.6 µM (inactive) | 5.01 µM (inactive) | 38.8 µM (inactive) | 27.5 µM (inactive) | 11.1 µM (inactive) | 14.8 µM (inactive) | > 33 µM (inactive) | 40.4 µM (inactive) | 4.37 µM (inactive) | 2.87 µM (inactive) | 19.1 µM (inactive) | > 100 µM (inactive) | 20.9 µM (inactive) | 26.3 µM (inactive)
